Test results: patent US20120053148A1, “INHIBITORS OF HEPATITIS C VIRUS” (GILEAD SCIENCES, INC., priority 2010, published 2012)

Tested on: HCV Replicon IB
Assay: HCV replicon assay in Huh-7 cells, genotype 1b (Rluc luciferase readout)
Assay type: cell-based, hepatitis C virus
Conditions: HCV1B replicon, Huh-7 cells, 3 days; read-out: EC50_HCV1B_

| Compound | EC50 |
| --- | --- |
| Cc1cc(-c2nnc(N[C@H]3CC[C@@](C)(O)CC3)o2)nc2c(C(C)(C)C)cc(OCC(F)(F)F)cc12 [Compound 496] | 13.7 nM |
| Cc1cc(-c2nnc(NCC[C@H](C)O)s2)nc2c(C(C)(C)C)cc(C3CC3)cc12 [Compound 385] | 1.73 nM |
| Cc1cc(-c2nnc(NC3CCC(O)(CF)C3)o2)nc2c(C(C)(C)C)cc(OCC(F)(F)F)cc12 (stereo not shown) [Compound 490] | 50 nM |

Same assay, conditions: Hepatitis C virus, 72 h; 10 uM; 1b-Rluc replicon, Huh-7 cells, 3 days; read-out: Inhibition @ 10 uM in 1b-Rluc

| Compound | inhibition at 10 µM |
| --- | --- |
| Nc1cc(C(=O)NCC2CS(=O)(=O)CCN2)nc2c(C(F)(F)F)cc(OC(F)F)cc12 (stereo not shown) [Compound 198] | 98.4% |
| Cc1cc(-c2nnc(NCCOCCO)s2)nc2c(C(F)(F)F)cc(C3CC3)cc12 [Compound 292] | 97.9% |
| Cc1cc(-c2nnc(NCCC3OCCO3)s2)nc2c(C(F)(F)F)cc(C3CC3)cc12 [Compound 294] | 99.9% |
| CCC(=O)CNC(=O)c1cc(N)c2cc(C3CC3)cc(C(F)(F)F)c2n1 [Compound 220] | 100% |
| Cc1cc(-c2nnc(NCCS(C)(=O)=O)o2)nc2c(C(F)(F)F)cc(C3CC3)cc12 [Compound 265] | 98% |
| CCC(=O)CNC(=O)c1cc(C)c2cc(C3CC3)cc(C(F)(F)F)c2n1 [Compound 95] | 100% |
| Cc1cc(C(=O)NCc2cc(C#N)ccn2)nc2c(C(F)(F)F)cc(C3CC3)cc12 [Compound 110] | 99.9% |
| Cc1cc(C(=O)NC(CO)c2ccccc2)nc2c(C(F)(F)F)cc(-c3ccccc3)cc12 (stereo not shown) [Compound 167] | 87.5% |
| COCCCNc1nnc(-c2cc(C)c3cc(OC)cc(C(F)(F)F)c3n2)o1 [Compound 274] | 99.4% |
| Cc1cc(C(=O)NCC2OCCCO2)nc2c(C(F)(F)F)cc(C3CC3)cc12 [Compound 82] | 100% |
| Cc1cc(C(=O)NCC2(C)COC2)nc2c(C(F)(F)F)cc(C3CC3)cc12 [Compound 103] | 96.1% |
| Cc1cc(C(=O)NC[C@@H]2COCCN2)nc2c(C(F)(F)F)cc(C3CC3(F)F)cc12 (stereo partly shown) [Compound 155] | 99.7% |
| Cc1cc(C(=O)NC[C@H]2CC(F)(F)CN2)nc2c(C(F)(F)F)cc(C3CC3)cc12 [Compound 128] | 99.4% |
| Cc1cc(C(=O)NCCC2CCCCN2)nc2c(C(F)(F)F)cc(C3CC3)cc12 (stereo not shown) [Compound 124] | 99.2% |
| Cc1cc(C(=O)NCCO)nc2c(C(F)(F)F)cc(-c3ccccc3)cc12 [Compound 166] | 93.8% |
| Cc1cc(-c2nnc(NCc3ccccn3)o2)nc2c(C(F)(F)F)cc(C3CC3)cc12 [Compound 254] | 99.7% |
| Cc1cc(-c2nnc(NCCCCO)o2)nc2c(C(C)(C)C)cc(C3CC3)cc12 [Compound 284] | 99.9% |

| Compound | inhibition at 10 µM |
| --- | --- |
| C#Cc1cc(OC(F)(F)F)cc2c(Cl)cc(C(=O)NCc3ccccn3)nc12 [Compound 238] | 9.91% |
| COc1cc(C(F)(F)F)c2nc(-c3nnc(NCC4OCCO4)o3)cc(C)c2c1 [Compound 278] | 99.9% |
| Cc1cc(C(=O)NCC2CCCCO2)nc2c(C(F)(F)F)cc(C3CC3)cc12 (stereo not shown) [Compound 81] | 100% |
| CC(C)=Cc1cc(C(F)(F)F)c2nc(C(=O)NCc3ccccn3)cc(C)c2c1 [Compound 139] | 99.7% |
| Cc1cc(-c2nnc(NCCCO)o2)nc2c(C(F)(F)F)cc(C3CC3)cc12 [Compound 249] | 100% |
| COc1cc(C(F)(F)F)c2nc(-c3nnc(NCCCO)o3)cc(C)c2c1 [Compound 277] | 98.2% |
| Cc1cc(C(=O)NCC2(C)OCCO2)nc2c(C(F)(F)F)cc(C3CC3)cc12 [Compound 98] | 98.1% |
| Cc1cc(C(=O)NCC2CCCCN2)nc2c(C(F)(F)F)cc(C3CC3)cc12 (stereo not shown) [Compound 108] | 96.5% |
| Cc1cc(C(=O)NCC2(O)CCCC2)nc2c(C(F)(F)F)cc(C3CC3)cc12 [Compound 94] | 99.9% |
| O=C(NCc1ccccn1)c1cnc2cc(-c3ccccc3)cc(C(F)(F)F)c2n1 [Compound 173] | 86.3% |
| Cc1cc(-c2nnc(NCCS(C)(=O)=O)o2)nc2c(C(C)(C)C)cc(C3CC3)cc12 [Compound 285] | 99.6% |
| Cc1cc(C(=O)NCCCN2CC(O)C2)nc2c(C(F)(F)F)cc(C3CC3)cc12 [Compound 126] | 90.1% |
| CCOCCNc1nnc(-c2cc(C)c3cc(OC)cc(C(F)(F)F)c3n2)o1 [Compound 276] | 97.6% |
| Cc1cc(-c2nnc(NCCCN3CCOCC3)s2)nc2c(C(F)(F)F)cc(C3CC3)cc12 [Compound 298] | 88% |
| Cc1cc(-c2nnc(NCC3CCS(=O)(=O)C3)o2)nc2c(C(F)(F)F)cc(C3CC3)cc12 (stereo not shown) [Compound 266] | 90.6% |
| Cc1cc(-c2nnc(NCCCCCO)o2)nc2c(C(F)(F)F)cc(C3CC3)cc12 [Compound 259] | 98.4% |

Same assay, conditions: Hepatitis C virus, Huh-7, 72 h, HCV1B replicon, Huh-7 cells, 3 days; read-out: EC50_HCV1B_

| Compound | EC50 |
| --- | --- |
| Cc1cc(-c2nnc(N[C@H]3C[C@](O)(C(F)S(=O)(=O)c4ccccc4)C3)o2)nc2c(C(C)(C)C)cc(OCC(F)(F)F)cc12 (stereo partly shown) [Compound 481] | 2880 nM |
| Cc1cc(-c2nnc(NC3CC(O)(C(F)(F)F)C3)o2)nc2c(C(C)(C)C)cc(OCC(F)(F)F)cc12 (stereo not shown) [Compound 469] | 115 nM |
| Cc1cc(C(=O)NC[C@@H]2CSCN2)nc2c(C(C)(C)C)cc(C3CC3)cc12 [Compound 427] | 7.44 nM |
| Cc1cc(-c2nnc(NC[C@@H]3CCCO3)o2)nc2c(C(C)(C)C)cc(C3CC3)cc12 [Compound 398] | 3.69 nM |
| Cc1cc(-c2nnc(NCC3OC[C@H](C)O3)o2)nc2c(C(C)(C)C)cc(C3CC3)cc12 (stereo partly shown) [Compound 412] | 36.2 nM |
| CC(C)(C)c1cc(C2CC2)cc2c(NC(=O)CN)cc(-c3nnc(NCC4OCCO4)o3)nc12 [Compound 361] | 7.36 nM |
| CSC(F)(F)Oc1cc(C(C)(C)C)c2nc(-c3nnc(N[C@H]4C[C@](O)(CF)C4)o3)cc(C)c2c1 [Compound 530] | 2.81 nM |
| CC(C)(C)c1cc(OCC(F)(F)F)cc2c(N)cc(-c3nnc(Nc4ccccn4)o3)nc12 [Compound 520] | 0.44 nM |
| Cc1cc(-c2nnc(N[C@H]3CCOC3)o2)nc2c(C(C)(C)C)cc(OCC(F)(F)F)cc12 [Compound 451] | 2.45 nM |
| Cc1cc(-c2nnc(NC3CC(O)C3)o2)nc2c(C(C)(C)C)cc(OCC(F)(F)F)cc12 (stereo not shown) [Compound 461] | 1.38 nM |
| Cc1cc(-c2nnc(NCC3OCCO3)o2)nc2c(S(C)(=O)=O)cc(C3CC3)cc12 [Compound 547] | 185 nM |
| CCCCNc1nnc(-c2cc(N)c3cc(C4CC4)cc(C(C)(C)C)c3n2)o1 [Compound 344] | 11 nM |
| CC(C)(C)c1cc(C2CC2)cc2c(N)cc(C(=O)NCC3COC3)nc12 [Compound 337] | 69.6 nM |
| Cc1cc(-c2nnc(Nc3cn[nH]c3)s2)nc2c(C(F)(F)F)cc(C3CC3)cc12 [Compound 313] | 10.2 nM |
| CC(=O)c1cc(C2CC2)cc2c(C)cc(-c3nnc(NCC4OCCO4)o3)nc12 [Compound 541] | 18.6 nM |
| Cc1cc(-c2nnc(NCC3OCCO3)o2)nc2c(C(C)(C)C)cc(OCC3OCCO3)cc12 [Compound 533] | 306 nM |
| CCCCCNc1nnc(-c2cc(C)c3cc(C4CC4)cc(C(F)(F)F)c3n2)o1 [Compound 388] | 13.2 nM |
| Cc1cc(-c2nnc(N[C@H]3C[C@](O)(C(F)F)C3)o2)nc2c(C(C)(C)C)cc(OCC(F)(F)F)cc12 [Compound 468] | 0.36 nM |

| Compound | EC50 |
| --- | --- |
| CC(C)(C)c1cc(C2CC2)cc2c(N)cc(-c3nnc(NCCCCO)o3)nc12 [Compound 355] | 3.24 nM |
| CC(C)(C)c1cc(C2CC2)cc2c(N)cc(-c3nnc(NCCS(N)(=O)=O)o3)nc12 [Compound 351] | 24.1 nM |
| CO[C@@H]1CN[C@H](CNC(=O)c2nc(N)c3cc(-c4ccccc4)cc(C(F)(F)F)c3n2)C1 [Compound 436] | 589 nM |
| Cc1cc(-c2nnc(N[C@H]3C[C@](O)(CO)C3)o2)nc2c(C(C)(C)C)cc(OCC(F)(F)F)cc12 [Compound 499] | 16.8 nM |
| Cc1cc(-c2nnc(NCC[C@H](C)O)o2)nc2c(C(C)(C)C)cc(OCC(F)(F)F)cc12 [Compound 456] | 3.3 nM |
| Cc1cc(-c2nnc(NCC3OCCS3(=O)=O)o2)nc2c(C(C)(C)C)cc(OCC(F)(F)F)cc12 (stereo not shown) [Compound 483] | 1.72 nM |
| CCCCNc1nnc(-c2cc(N)c3cc(C4CC4)cc(C(C)(C)C)c3n2)s1 [Compound 376] | 0.86 nM |
| Cc1cc(-c2nnc(NC3CC4(COCO4)C3)o2)nc2c(C(C)(C)C)cc(C3CC3)cc12 (stereo not shown) [Compound 515] | 15.9 nM |
| Cc1cc(-c2nnc(NC3CCC(O)(CF)C3)o2)nc2c(C(C)(C)C)cc(OCC(F)(F)F)cc12 (stereo not shown) [Compound 489] | 26.7 nM |
| Cc1cc(-c2nnc(NC3CC(C)(O)C3)o2)nc2c(C(C)(C)C)cc(OCC(F)(F)F)cc12 (stereo not shown) [Compound 466] | 0.88 nM |
| Cc1cc(-c2nnc(NCCC(C)(C)O)o2)nc2c(C(C)(C)C)cc(OCC(F)(F)F)cc12 [Compound 449] | 11.3 nM |
| Cc1cc(-c2nnc(N[C@H]3C[C@](O)(CF)C3)o2)nc2c(C(C)(C)C)cc(OC(F)F)cc12 [Compound 527] | 0.81 nM |
| Cc1cc(-c2nnc(NCC3OCCO3)o2)nc2c(OC(F)(F)F)cc(OCC(F)(F)F)cc12 [Compound 539] | 4.12 nM |
| Cc1cc(-c2nnc(N[C@H]3CC[C@@H](O)C3)o2)nc2c(C(C)(C)C)cc(OCC(F)(F)F)cc12 (racemic) [Compound 476] | 1.32 nM |
| Cc1cc(C(=O)NCC2COC2)nc2c(C(C)(C)C)cc(C3CC3)cc12 [Compound 424] | 488 nM |
| Cc1cc(-c2nnc(N[C@H]3C[C@@H](O)C3)s2)nc2c(C(C)(C)C)cc(OCC(F)(F)F)cc12 [Compound 518] | 51.3 nM |
| CC(C)(C)c1cc(C2CC2)cc2c(N)cc(-c3nnc(Nc4cccc(S(N)(=O)=O)c4)o3)nc12 [Compound 357] | 356 nM |

Same assay, conditions: Hepatitis C virus, Huh-7, 72 h, read-out: EC50_HCV1B_(nM)

| Compound | EC50 |
| --- | --- |
| CC(C)(C)c1cc(C2CC2)cc2c(N)cc(C(=O)NC[C@@H]3CC4(CN3)OCCO4)nc12 [Compound 332] | 3.07 nM |

Same assay, conditions: Hepatitis C virus, Huh-7, 72 h; read-out: EC50_HCV1B_

| Compound | EC50 |
| --- | --- |
| Cc1cc(-c2nnc(N[C@H]3C[C@@H](O)C3)o2)nc2c(C(C)(C)C)cc(OCC(C)(C)O)cc12 [Compound 536] | 31.4 nM |
